Test results as given in patent EP0277849A1, “Incorporation of one or more lipophilic, active principles into lipoproteins, lipoproteins obtained and pharmaceutical compositions containing them” (IRE-CELLTARG S.A., priority 1987, dated 1988).

Experiments:
[1] = Incorporation of antifungal agent into LDL by NaDoc dissociation-reconstitution; assay type: physicochemical; settings: 1,6 mg LDL, 482 µg of agent, dialysis
Description: On ajoute à 1,6 mg de LDL préalablement dialysées contre le tampon C, 10 mg de NaDoc solide et on laisse réagir 30 minutes à température ambiante. On ajoute à la préparation 2,8 ml d'une solution NaDoc 20 mM, Na2COs 50 mM, NaCi 50 mM, pH 10 contenant 482 µg de CT4000A ou 482 µg de CT040013. Les échantillons sont dialysés à 4° C contre trois fois 1 litre de tampon B.
Le pourcentage de récupération en LDL, en CT040013 et en NaDoc est déterminé au terme du processus de reconstitution (figure 13).
Il est également possible de rapporter la masse de substance incorporée par mole de LDL. Les résultats obtenus pour le CT04000A et la CT040013 sont respectivement de 0,4 et de 208 moles incorporés par mole de LDL.

[2] = system: L. mexicana amazonentis; assay: In vitro antileishmanial model: intracellular amastigotes in peritoneal macrophages; assay type: cell-based; settings: for Nombre d'amastigotes (b) (% des contrôles): 35°, mean (SD) of 4
Description: Le modèle in vitro utilisé, consiste à développer les formes intracellulaires (amastigotes) de Leishmania mexicana anazonentis dans des macrophages péritonéaux de souris Balb/c injectés initialement par les formes promastigotes.
La culture de macrophages est obtenue à partir des cellules de la cavité péritonéale.
Brièvement, la cavité péritonéale est lavée plusieurs fois avec du milieu RPMI 1640 contenant de la pénicilline (100 U/ml) et de la streptomycine (100 µg/ml) additionné de glutamine (2 mM) et de 20 % de sérum de veau foetal décomplémenté à la chaleur. Ce milieu constitue le milieu de culture complet. Après centrifugation de la suspension cellulaire ainsi obtenue, les cellules sont resuspendues dans le même milieu, puis incubées 1 heure à 37° C en présence de 5 % C02 dans des boîtes de Pétri. Les macrophages adhérents sont ensuite lavés plusieurs fois, détachés de leur support puis comptés. Un volume cellulaire contenant 2,5 x 10^5 macrophages est ajouté dans chaque puits (16 mm de diamètre) des boîtes de culture contenant chacun une lamelle en verre. Les cellules sont ainsi cultivées 3 jours à 37°C. Avant d'être utilisées, les cultures sont lavées 2 fois pour retirer les cellules non adhérentes. Dans ces conditions, les cultures contiennent 1,5 à 2,0 x 10^5 macrophages.
La souche de L. mexicana amazonentis est maintenue sous forme promastigote à 27° C par passage successif dans du milieu Schneider Drosophila contenant 100 µg/ml de gentamycine, 2 mM de glutamine, 5 gg/ml d'hémine et additionné de 20 % de sérum de veau foetal décomplémenté.
Une suspension de promastigotes en phase stationnaire est ajoutée à chaque culture de macrophages à raison de 4 parasites par cellule. Les cultures sont incubées à 34,5°-35°C (5 % C02-95 % air) pendant 7 heures. Les cultures infectées sont lavées avec du milieu sans sérum jusqu'à ce qu'il y ait moins de un parasite par 20 macrophages. Une culture (1 boîte à 4 puits) est fixée et colorée au May-Grûnwald Giemsa pour contrôler l'infection (jour 0). S'il y a moins de 50 organismes intracellulaires par 100 macrophages, l'infection est considérée trop faible pour une interprétation correcte des résultats. 24 heures après l'infection, le milieu de culture est remplacé par du milieu frais contenant ou non un agent thérapeutique. Nous avons choisi d'utiliser le dérivé oléoyl-kétoconazole seul ou incorporé à des LSL natives ou acétylées. Le milieu (± l'agent thérapeutique) est renouvelé au jour 3. Au jour 6, des cultures de macrophages Infectés sont fixées, colorées, séchées, la lamelle de verre est ensuite montée sur une lame pour l'observation microscopique.
Le nombre d'amastigotes contenu dans 100 à 200 macrophages est déterminé pour chaque culture. Le nombre moyen d'organismes par 100 macrophages au jour 6 dans les cultures traitées est exprimé en pourcentage du nombre moyen d'organismes par 100 macrophages dans les cultures contrôles au jour 6 (% de survie). Les cultures contrôles contiennent en moyenne 300 à 400 parasites par 100 macrophages; 60 % en moyenne des macrophages sont infectés et contiennent de 5 à 7 amastigotes.

[3] = system: macrophages J77468; assay: Toxicity for J77468 macrophages (MTT reduction); assay type: cell-based, murine; settings: for % de viabilité cellulaire*: 18 h, MTT
Description: La lignée continue de macrophages J77468 d'origine murine provient d'un clonage de la souche J774 ATCC, et est cultivée en milieu RPMI 1640 additionné de glutamine 2 mM, 10% de sérum de veau foetal (décomplémenté 60 min. à 56°) et de 10 mM Hepes (pH 7.2). Une suspension de 5 10^6 cellules/ml sont infectées avec une culture de Candida tropicalis (5 10^5 levures/ml) provenant d'une culture de nuit dans de la casitone. Le milieu d'infection utilisé est du RPMI contenant 2 % de sérum de veau nouveau-né et 10 mM Hepes (pH 7.2).
La viabilité des macrophages J77468 cultivés dans du milieu contenant l'agent antifongique encapsulé ou non dans les LDL figure au Tableau 5. K et K01 sont toxiques aux concentrations nécessaires pour réduire de 50 % l'infection intracellulaire (C1250) contrairement au LDL-K01 pour lequel aucune toxicité n'a pu être détectée.

[4] = Leishmania mexicana, Peritoneal macrophage, read-out: Activité (c) (% inhibition)

CCCCCCCC/C=C\CCCCCCCC(=O)N1CCN(c2ccc(OC[C@H]3CO[C@](Cn4ccnc4)(c4ccc(Cl)cc4Cl)O3)cc2)CC1 [KO1]
moles incorporés par mole de LDL [1]: 208 moles incorporés par mole de LDL
inhibition at 0.5 µg/mL [2, 4]: 28%
inhibition at 1 µg/mL [2, 4]: 43%
inhibition at 1.4 µg/mL [2, 4]: 50%
inhibition at 2 µg/mL [2, 4]: 56%
inhibition at 2.5 µg/mL [2, 4]: 64%
inhibition at 11 µg/mL [2, 4]: 90%
index thérapeutique (rapport de ED50 kéto sur ED50 K01) ([2]; compared with kétoconazole): 9
Nombre d'amastigotes (b) (% des contrôles) ([2]; dose 0,5 µg/ml, 6 jours): 72 (6) %
Nombre d'amastigotes (b) (% des contrôles) ([2]; dose 1,0 µg/ml, 6 jours): 57 (3) %
Nombre d'amastigotes (b) (% des contrôles) ([2]; dose 1,4 µg/ml, 6 jours): 50 (4) %
Nombre d'amastigotes (b) (% des contrôles) ([2]; dose 2,0 µg/ml, 6 jours): 44 (2) %
Nombre d'amastigotes (b) (% des contrôles) ([2]; dose 2,5 µg/ml, 6 jours): 36 (6) %
Nombre d'amastigotes (b) (% des contrôles) ([2]; dose 11,0 µg/ml, 6 jours): 10 (4) %
ED50 (50 % d'inhibition) ([2]; intracellular amastigotes, 6 jours): 1,4 µg KO1.ml
toxicité aux concentrations nécessaires pour réduire de 50 % l'infection intracellulaire [3]: toxiques
% de viabilité cellulaire* ([3]; Concentration 0,78 µM): 67,72%
% de viabilité cellulaire* ([3]; Concentration 1,56 µM): 67,72%
% de viabilité cellulaire* ([3]; Concentration 3,13 µM): 67,36%
% de viabilité cellulaire* ([3]; Concentration 6,25 µM): 60,70%
% de viabilité cellulaire* ([3]; Concentration 12,50 µM): 69,47%
% de viabilité cellulaire* ([3]; Concentration 25,00 µM): 67,71%
% de viabilité cellulaire* ([3]; Concentration 50,00 µM): 71,22%
% de viabilité cellulaire* ([3]; Concentration 100,00 µM, versus untreated control): 38,94%
